# Measured values as given in patent US20250059185A1 (Hoffmann-La Roche Inc., priority 2021, published 2025).
# Where a name gives a salt, the structure may show the parent alone.
# Molecular target: MAGL (Homo sapiens (Human), UniProt Q99685)
# Assay: 2-AG assay (MAGL inhibitory activity, hydrolysis of 2-arachidonoylglycerol followed by mass spectrometry)
# Assay type: biochemical
# Details: 50 pM MAGL protein, 15 min pre-incubation, 30 min incubation at RT
# Summary of the method: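 Human MAGL (50 pM final) preincubated 15 min at RT with compound (3-fold dilutions, 12.5 μM to 0.8 pM final) in 50 mM TRIS, 1 mM EDTA, 0.01% Tween-20, 2.5% DMSO. Reaction with […] 2-AG ran 30 min at RT, then was quenched with acetonitrile containing d8-arachidonic acid. Arachidonic acid measured by SPE–triple-quad MS (negative ESI), activity from the arachidonic/d8-arachidonic acid intensity ratio.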
# MAGL, sequence (Q99685 whole entry, species assumed): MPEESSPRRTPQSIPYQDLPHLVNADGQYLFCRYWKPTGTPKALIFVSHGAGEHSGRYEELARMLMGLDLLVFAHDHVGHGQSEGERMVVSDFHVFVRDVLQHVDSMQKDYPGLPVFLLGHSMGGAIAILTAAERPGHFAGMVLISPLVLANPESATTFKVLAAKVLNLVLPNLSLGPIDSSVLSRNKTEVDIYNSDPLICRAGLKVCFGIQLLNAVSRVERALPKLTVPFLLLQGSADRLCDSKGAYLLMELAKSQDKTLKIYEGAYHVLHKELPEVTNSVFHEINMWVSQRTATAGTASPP
row,SMILES,IC50
1,"C[C@@H]1c2nn(C)c(-c3cc(F)cc(F)c3)c2CCN1C(=O)c1ccc(CCC2CNC(=O)C2)cc1Cl (stereo partly drawn) [Example 48, 4-[2-[3-Chloro-4-[(7R)-3-(3,5-difluorophenyl)-2,7-dimethyl-5,7-dihydro-4H-pyrazolo[3,4-c]pyridine-6-carbonyl]phenyl]ethyl]pyrrolidin-2-one]",1680 nM
2,C=S(N)(=O)c1cc(Cl)cc(-c2c3c(nn2C)C(C)N(C(=O)c2cc(F)cc(-c4ccc(=O)[nH]c4)c2Cl)CC3)c1 (stereo not drawn) [Example 56],12 nM
3,"COc1cccc(C(=O)N2CCc3c(nn(C)c3-c3cnc(C(F)(F)F)nc3)[C@@H]2C)c1Cl [Example 9, (2-Chloro-3-methoxy-phenyl)-[(7S)-2,7-dimethyl-3-[2-(trifluoromethyl)pyrimidin-5-yl]-5,7-dihydro-4H-pyrazolo[3,4-c]pyridin-6-yl]methanone]",311 nM
4,"CC1c2nn(C)c(-c3cc(Cl)cc(S(N)(=O)=O)c3)c2CCN1C(=O)c1cc(F)cc(-c2nc[nH]n2)c1Cl (stereo not drawn) [Example 61, 3-Chloro-5-[6-[2-chloro-5-fluoro-3-(1H-1,2,4-triazol-3-yl)benzoyl]-2,7-dimethyl-5,7-dihydro-4H-pyrazolo[3,4-c]pyridin-3-yl]benzenesulfonamide]",77 nM
5,"COc1cccc(C(=O)N2CCc3c(nn(C)c3-c3cc(Cl)cc(CNS(C)(=O)=O)c3)[C@H]2C)c1Cl [Example 2, N-[[3-Chloro-5-[(7R)-6-(2-chloro-3-methoxy-benzoyl)-2,7-dimethyl-5,7-dihydro-4H-pyrazolo[3,4-c]pyridin-3-yl]phenyl]methyl]methanesulfonamide]",1650 nM
6,"C[C@H]1c2nn(C)c(-c3cc(F)c(F)c(F)c3F)c2CCN1C(=O)c1cc(F)cc(-c2c[nH]c(C#N)c2)c1Cl [Example 90, 4-[2-chloro-3-[(7S)-2,7-dimethyl-3-(2,3,4,5-tetrafluorophenyl)-5,7-dihydro-4H-pyrazolo[3,4-c]pyridine-6-carbonyl]-5-fluoro-phenyl]-1H-pyrrole-2-carbonitrile]",24.6 nM
7,"CC1c2nn(C)c(-c3cc(F)cc(F)c3)c2CCN1C(=O)c1cc(F)cc(CNC2CNC(=O)C2)c1Cl (stereo not drawn) [Example 106, 4-[[2-chloro-3-[3-(3,5-difluorophenyl)-2,7-dimethyl-5,7-dihydro-4H-pyrazolo[3,4-c]pyridine-6-carbonyl]-5-fluoro-phenyl]methylamino]pyrrolidin-2-one;hydrochloride]",12.4 nM
8,"C[C@H]1c2nn(C)c(-c3cncc(C(F)(F)F)n3)c2CCN1C(=O)c1ncn(-c2ccc[nH]c2=O)n1 [Example 67, 3-[3-[(7S)-2,7-dimethyl-3-[6-(trifluoromethyl)pyrazin-2-yl]-5,7-dihydro-4H-pyrazolo[3,4-c]pyridine-6-carbonyl]-1,2,4-triazol-1-yl]-1H-pyridin-2-one]",4220 nM
9,"COc1cccc(C(=O)N2CCc3c(nn(C)c3-c3cc(Cl)cc(CC(C)(C)O)c3)[C@@H]2C)c1Cl [Example 95, [(7S)-3-[3-chloro-5-(2-hydroxy-2-methyl-propyl)phenyl]-2,7-dimethyl-5,7-dihydro-4H-pyrazolo[3,4-c]pyridin-6-yl]-(2-chloro-3-methoxy-phenyl)methanone]",16.9 nM
10,"C[C@@H]1c2nn(C)c(-c3cc(F)cc(F)c3)c2CCN1C(=O)c1cc(F)cc(OCC2CNC(=O)O2)c1Cl (single isomer, unassigned) [Example 52, 5-[[2-Chloro-3-[3-(3,5-difluorophenyl)-2,7-dimethyl-5,7-dihydro-4H-pyrazolo[3,4-c]pyridine-6-carbonyl]-5-fluoro-phenoxy]methyl]oxazolidin-2-one]",2000 nM
11,"C[C@H]1c2nn(C)c(-c3cc(F)cc(F)c3)c2CCN1C(=O)c1cc(F)cc(OCC2CNC(=O)O2)c1Cl (single isomer, unassigned) [Example 49, 5-[[2-Chloro-3-[3-(3,5-difluorophenyl)-2,7-dimethyl-5,7-dihydro-4H-pyrazolo[3,4-c]pyridine-6-carbonyl]-5-fluoro-phenoxy]methyl]oxazolidin-2-one]",1 nM
12,"C[C@H]1c2nn(C)c(-c3cc(F)c(F)c(F)c3)c2CCN1C(=O)c1cc(F)cc(-c2c[nH]c(C#N)c2)c1Cl [Example 92, 4-[2-chloro-3-[(7S)-2,7-dimethyl-3-(3,4,5-trifluorophenyl)-5,7-dihydro-4H-pyrazolo[3,4-c]pyridine-6-carbonyl]-5-fluoro-phenyl]-1H-pyrrole-2-carbonitrile]",4.35 nM
13,"COc1cccc(C(=O)N2CCc3c(nn(C)c3-c3nnc(C(F)(F)F)o3)[C@@H]2C)c1Cl [Example 12, (2-Chloro-3-methoxy-phenyl)-[(7S)-2,7-dimethyl-3-[5-(trifluoromethyl)-1,3,4-oxadiazol-2-yl]-5,7-dihydro-4H-pyrazolo[3,4-c]pyridin-6-yl]methanone]",390 nM
14,"COc1cccc(C(=O)N2CCc3c(nn(C)c3-c3cncc(CC(N)=O)c3)[C@@H]2C)c1Cl [Example 18, 2-[5-[(7S)-6-(2-Chloro-3-methoxy-benzoyl)-2,7-dimethyl-5,7-dihydro-4H-pyrazolo[3,4-c]pyridin-3-yl]-3-pyridyl]acetamide]",3080 nM
15,"COc1cccc(C(=O)N2CCc3c(nn(C)c3-c3ccnc(C(F)(F)F)n3)[C@@H]2C)c1Cl [Example 81, (2-chloro-3-methoxy-phenyl)-[(7S)-2,7-dimethyl-3-[2-(trifluoromethyl)pyrimidin-4-yl]-5,7-dihydro-4H-pyrazolo[3,4-c]pyridin-6-yl]methanone]",21 nM
16,"CC1c2nn(C)c(-c3cc(F)cc(F)c3)c2CCN1C(=O)c1cc(F)cc(OCC2CNC(=O)C2)c1Cl (single isomer, unassigned) [Example 38, 4-[[2-Chloro-3-[3-(3,5-difluorophenyl)-2,7-dimethyl-5,7-dihydro-4H-pyrazolo[3,4-c]pyridine-6-carbonyl]-5-fluoro-phenoxy]methyl]pyrrolidin-2-one]",0.5 nM
17,"COc1cccc(C(=O)N2CCc3c(nn(C)c3-c3cc(Cl)cc(C4(NS(C)(=O)=O)CC4)c3)[C@@H]2C)c1Cl [Example 7, N-[1-[3-Chloro-5-[(7S)-6-(2-chloro-3-methoxy-benzoyl)-2,7-dimethyl-5,7-dihydro-4H-pyrazolo[3,4-c]pyridin-3-yl]phenyl]cyclopropyl]methanesulfonamide]",17 nM
18,"CC1c2nn(C)c(-c3cc(F)cc(F)c3)c2CCN1C(=O)c1cc(F)cc(OCC2CNC(=O)C2)c1Cl (single isomer, unassigned) [Example 39, 4-[[2-Chloro-3-[3-(3,5-difluorophenyl)-2,7-dimethyl-5,7-dihydro-4H-pyrazolo[3,4-c]pyridine-6-carbonyl]-5-fluoro-phenoxy]methyl]pyrrolidin-2-one]",169 nM
